# Source: PubChem BioAssay AID1963869 (Molecular Pharmacology Branch, DTP, NCI, 2024)
# System: KRAS patient-derived spheroids with HUVEC/MSC, viability
# Assay: Anticancer human tumor 323965-272-R-J2-PDC patient-derived pancreatic carcinoma cell line growth inhibition [KRAS2]
# Conditions: for IC50: curve of first compound; for viability, T/C: stronger effect = lower value
# Method in brief: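 KRAS-mutant tumor cells were grown as spheroids with HUVEC endothelial cells and human MSCs as stroma. Targeted agents were tested alone and with KRAS pathway inhibitors. Doses started at or near clinical Cmax, or 10 microM, descending half-log.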
# [1] = second compound 0.1 µM, first compound 0.0316 µM
# [2] = second compound 0.1 µM, first compound 0.1 µM
# [3] = second compound 0.1 µM, first compound 0.316 µM
# [4] = second compound 0.1 µM, first compound 1 µM
# [5] = second compound 0.1 µM, first compound 3.16 µM
# [6] = second compound 0.316 µM, first compound 0.0316 µM
# [7] = second compound 0.316 µM, first compound 0.1 µM
# [8] = second compound 0.316 µM, first compound 0.316 µM
# [9] = second compound 0.316 µM, first compound 1 µM
# [10] = second compound 0.316 µM, first compound 3.16 µM
# [11] = second compound 1 µM, first compound 0.0316 µM
# [12] = second compound 1 µM, first compound 0.1 µM
# [13] = second compound 1 µM, first compound 0.316 µM
# [14] = second compound 1 µM, first compound 1 µM
# [15] = second compound 1 µM, first compound 3.16 µM
# [16] = second compound 3.16 µM, first compound 0.0316 µM
# [17] = second compound 3.16 µM, first compound 0.1 µM
# [18] = second compound 3.16 µM, first compound 0.316 µM
# [19] = second compound 3.16 µM, first compound 1 µM
# [20] = second compound 3.16 µM, first compound 3.16 µM
# 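Also: spheroids exposed to agents for 7 days.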
# 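For viability, T/C in this document: 100% = DMSO vehicle control viability.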
Compound,IC50 (second compound 0.1 µM),IC50 (second compound 0.316 µM),IC50 (second compound 1 µM),IC50 (second compound 3.16 µM),"viability, T/C [1]","viability, T/C [2]","viability, T/C [3]","viability, T/C [4]","viability, T/C [5]","viability, T/C [6]","viability, T/C [7]","viability, T/C [8]","viability, T/C [9]","viability, T/C [10]","viability, T/C [11]","viability, T/C [12]","viability, T/C [13]","viability, T/C [14]","viability, T/C [15]","viability, T/C [16]",also measured
COc1cc2nccc(Oc3ccc(NC(=O)C4(C(=O)Nc5ccc(F)cc5)CC4)cc3)c2cc1OC + C=CC(=O)N1CCN(c2nc(OCC3CCCN3C)nc3c2CCN(c2cccc4cccc(C)c24)C3)CC1CC#N,> 10000 nM,> 10000 nM,> 10000 nM,< 31.6 nM,55.9%,62.1%,64.6%,67.3%,65.9%,58.9%,59.6%,65.3%,68.8%,64.8%,59.3%,63.5%,62.8%,69.9%,66.5%,21.5%,"IC50 (second compound 0.0316 µM): > 10000 nM; viability, T/C (second compound 0.0316 µM, first compound 0.0316 µM): 69%; viability, T/C (second compound 0.0316 µM, first compound 0.1 µM): 71.3%; viability, T/C (second compound 0.0316 µM, first compound 0.316 µM): 77.3%; viability, T/C (second compound 0.0316 µM, first compound 1 µM): 76.8%; viability, T/C (second compound 0.0316 µM, first compound 3.16 µM): 74.6%; viability, T/C (second compound 0.0316 µM, first compound 10 µM): 80.3%; viability, T/C (second compound 0.1 µM, first compound 10 µM): 64.3%; viability, T/C (second compound 0.316 µM, first compound 10 µM): 70.1%; viability, T/C (second compound 1 µM, first compound 10 µM): 58.5%; viability, T/C [17]: 20.1%; viability, T/C [18]: 8.93%; viability, T/C [19]: 3.74%; viability, T/C [20]: 3.65%; viability, T/C (second compound 3.16 µM, first compound 10 µM): 0.28%"
CC1COCCN1c1cc(-c2ccnn2C)c2ccnc(-c3ccn[nH]3)c2n1 (stereo not given) + CNCc1ccccc1-c1csc(C(C)Nc2nc(C)nc3cc(OC)c(OC)cc23)c1,20.7 nM,21.4 nM,22.3 nM,12.8 nM,37.6%,22.5%,20.1%,18.2%,17.9%,35.8%,20.4%,19%,16.1%,17.1%,34.3%,17.9%,17.2%,14.9%,16.1%,24.2%,"IC50 (second compound 10 µM): < 10 nM; viability, T/C (second compound 0.1 µM, first compound 0.01 µM): 71.4%; viability, T/C (second compound 0.316 µM, first compound 0.01 µM): 77.8%; viability, T/C (second compound 1 µM, first compound 0.01 µM): 85.8%; viability, T/C (second compound 3.16 µM, first compound 0.01 µM): 57.1%; viability, T/C [17]: 5.14%; viability, T/C [18]: 4.3%; viability, T/C [19]: 7.85%; viability, T/C [20]: 8.8%; viability, T/C (second compound 10 µM, first compound 0.01 µM): 0.18%; viability, T/C (second compound 10 µM, first compound 0.0316 µM): 0.13%; viability, T/C (second compound 10 µM, first compound 0.1 µM): 0.13%; viability, T/C (second compound 10 µM, first compound 0.316 µM): 0.12%; viability, T/C (second compound 10 µM, first compound 1 µM): 0.25%; viability, T/C (second compound 10 µM, first compound 3.16 µM): 0.19%"
